The record followed here is patent US20240279236A1, “COMPOUNDS AND METHODS OF TREATING TUBERCULOSIS” (Fimbrion Therapeutics, Inc., priority 2021, published 2024).

A value given as a limit tells only on which side of the number the result lay.

The test system of the test is WT Mtb Erdman strain. In words: Microplate Alamar Blue Assay (MABA), Mtb growth inhibition. As to conditions: Mycobacterium tuberculosis, ERDMAN, 168 h, Middlebrook 7H9 media, 7 days at 37° C. in 5% CO2. The class given is cell-based, Mycobacterium tuberculosis.
The compound `CCc1nc(NCCCc2ccc(-c3cnccn3)cc2)c2cc(C)sc2n1` [Example 371, 2-ethyl-6-methyl-N-(3-(4-(pyrazin-2-yl)phenyl)propyl) thieno[2,3-d]pyrimidin-4-amine] gave an IC50 of 150 nM. The result for `CCc1nc(NCCCc2ccc(-c3ncccn3)cc2)c2cc(C)sc2n1` [Example 372, 2-ethyl-6-methyl-N-(3-(4-(pyrimidin-2-yl)phenyl)propyl) thieno[2,3-d]pyrimidin-4-amine] reads 250 nM; that for `CCc1nc(NCCCc2ccc(-c3cccnn3)cc2)c2cc(C)sc2n1` [Example 373, 2-ethyl-6-methyl-N-(3-(4-(pyridazin-3-yl)phenyl)propyl) thieno[2,3-d] pyrimidin-4-amine], 1000 nM. Then `CCc1nc(NCCCc2ccc(-c3ccc(OC(F)(F)F)cc3F)cc2)c2cc(C)sc2n1` [Example 374, 2-ethyl-N-(3-(2′-fluoro-4′-(tri-fluoromethoxy)-[1,1′-biphenyl]-4-yl)propyl)-6-methylthieno[2,3-d]pyrimidin-4-amine], with 30 nM.

Regarding `CCc1nc(NCCCc2ccc(-c3ccnnc3)cc2)c2cc(C)sc2n1` [Example 375, 2-ethyl-6-methyl-N-(3-(4-(pyridazin-4-yl)phenyl)propyl) thieno[2,3-d]pyrimidin-4-amine], the IC50 stood at 860 nM.

The compound `CCc1nc(NCCCc2ccc(-c3ccc(OC(F)(F)F)cn3)cc2)c2cc(C)sc2n1` [Example 376, 2-ethyl-6-methyl-N-(3-(4-(5-(trifluoro-methoxy)pyridin-2-yl)phenyl)propyl)thieno [2,3-d]pyrimidin-4-amine] returned an IC50 of 55 nM.

Consider `Cc1cc2c(NCCCc3ccc(-c4cnc(F)cn4)cc3)nc(-c3ccoc3)nc2s1` [Example 377, N-(3-[4-(5-fluoropyrazin-2-yl)phenyl]propyl)-2-(furan-3-yl)-6-methylthieno [2,3-d]pyrimidin-4-amine], for which the IC50 stood at 8 nM. Consider `Cc1cc2c(NCCCc3ccc(-c4cnc(C5CC5)cn4)cc3)nc(-c3ccoc3)nc2s1` [Example 378, N-(3-[4-(5-cyclopropyl-pyrazin-2-yl)phenyl]propyl)-2-(furan-3-yl)-6-methylthieno[2,3-d]pyrimidin-4-amine], for which the IC50 came out at 63 nM. `Cc1cc2c(NCCCc3ccc(-c4cnc(C(F)(F)F)cn4)cc3)nc(-c3ccoc3)nc2s1` [Example 379, 2-(furan-3-yl)-6-methyl-N-(3-(4-[5-(trifluoromethyl)pyrazin-2-yl]phenyl)propyl) thieno[2,3-d]pyrimidin-4-amine]: the IC50 came to 12 nM.

With `COc1cnc(-c2ccc(CCCNc3nc(-c4ccoc4)nc4sc(C)cc34)cc2)cn1` [Example 380, 2-(furan-3-yl)-N-(3-[4-(5-methoxypyrazin-2-yl)phenyl]propyl)-6-methylthieno[2,3-d]pyrimidin-4-amine], 17 nM corresponded to half-maximal inhibition (IC50). In the case of `Cc1cc2c(NCCCc3ccc(-c4cnc(N(C)C)cn4)cc3)nc(-c3ccoc3)nc2s1` [Example 381, 5-[4-(3-([2-(furan-3-yl)-6-methylthieno[2,3-d]pyrimidin-4-yl]amino)propyl)phenyl]-N,N-dimethyl-pyrazin-2-amine], half-maximal inhibition (IC50) required 39 nM. In turn, `Cc1cc2c(NCCCc3ccc(-c4ccc(F)cn4)cc3)nc(-c3ccoc3)nc2s1` [Example 382, N-(3-[4-(5-fluoropyridin-2-yl)phenyl]propyl)-2-(furan-3-yl)-6-methylthieno[2,3-d]pyrimidin-4-amine] came in with an IC50 of 8 nM. `Cc1cc2c(NCCCc3ccc(-c4cncc(C(F)(F)F)n4)cc3)nc(-c3ccoc3)nc2s1` [Example 383, 2-(furan-3-yl)-6-methyl-N-(3-(4-[6-(trifluoromethyl)pyrazin-2-yl]phenyl)propyl) thieno[2,3-d]pyrimidin-4-amine] came in with an IC50 of 230 nM.

The compound `Cc1cc2c(NCCCc3ccc(-c4ccc(F)nc4)cc3)nc(-c3ccoc3)nc2s1` [Example 384, N-(3-[4-(6-fluoropyridin-3-yl)phenyl]propyl)-2-(furan-3-yl)-6-methylthieno[2,3-d]pyrimidin-4-amine] yielded an IC50 of 6 nM. `Cc1cc2c(NCCCc3ccc(-c4ccnc(C(F)(F)F)n4)cc3)nc(-c3ccoc3)nc2s1` [Example 385, 2-(furan-3-yl)-6-methyl-N-(3-(4-[2-(trifluoromethyl)pyrimidin-4-yl]phenyl)propyl) thieno[2,3-d]pyrimidin-4-amine] displayed an IC50 of 200 nM. The compound `Cc1cc2c(NCCCc3ccc(-c4cnc(C(F)(F)F)nc4)cc3)nc(-c3ccoc3)nc2s1` [Example 386] returned an IC50 of 220 nM.

Regarding `Cc1cc2c(NCCCc3ccc(-c4ccc(C(F)(F)F)cn4)cc3)nc(-c3ccoc3)nc2s1` [Example 387, 2-(furan-3-yl)-6-methyl-N-(3-(4-[5-(trifluoromethyl)pyridin-2-yl]phenyl)propyl) thieno[2,3-d]pyrimidin-4-amine], the IC50 is 5 nM. Regarding `Cc1cc2c(NCCCc3ccc(-c4ccc(OC(F)(F)F)cn4)cc3)nc(-c3ccoc3)nc2s1` [Example 388, 2-(furan-3-yl)-6-methyl-N-(3-(4-[5-(trifluoro-methoxy)pyridin-2-yl]phenyl)propyl)thieno[2,3-d]pyrimidin-4-amine], inhibition was half-maximal at 7 nM (IC50). Then `Cc1cc2c(NCCCc3ccc(-c4ccc(C(F)(F)F)nn4)cc3)nc(-c3ccoc3)nc2s1` [Example 389, 2-(furan-3-yl)-6-methyl-N-(3-(4-[6-(trifluoro-methyl)pyridazin-3-yl]phenyl)propyl)thieno[2,3-d]pyrimidin-4-amine], with 32 nM; and `Cc1cc2c(NCCCc3ccc(-c4ccnc(O)c4)cc3)nc(-c3ccoc3)nc2s1` [Example 390, 4-[4-(3-([2-(furan-3-yl)-6-methylthieno[2,3-d]pyrimidin-4-yl]amino)propyl)phenyl]pyridin-2-ol], with 9300 nM; and `Cc1cc2c(NCCCc3ccc(-c4cnccn4)cc3)nc(-c3ccoc3)nc2s1` [Example 391, 2-(furan-3-yl)-6-methyl-N-(3-[4-(pyrazin-2-yl)phenyl]propyl) thieno[2,3-d]pyrimidin-4-amine], with 62 nM.

Take `Cc1cc2c(NCCCc3ccc(-c4cnc(OC(C)C)cn4)cc3)nc(-c3ccoc3)nc2s1` [Example 392, 2-(furan-3-yl)-6-methyl-N-(3-(4-[5-(propan-2-yloxy)pyrazin-2-yl]phenyl)propyl)thieno[2,3-d]pyrimidin-4-amine]: the IC50 turned out to be 44 nM. As to `Cc1cnc(-c2ccc(CCCNc3nc(-c4ccoc4)nc4sc(C)cc34)cc2)cn1` [Example 393, 2-(furan-3-yl)-6-methyl-N-(3-[4-(5-methyl-pyrazin-2-yl)phenyl]propyl) thieno[2,3-d] pyrimidin-4-amine], the IC50 was found to be 16 nM. For `Cc1cc2c(NCCCc3ccc(-c4ncc(C(F)(F)F)cn4)cc3)nc(-c3ccoc3)nc2s1` [Example 394, 2-(furan-3-yl)-6-methyl-N-(3-(4-[5-(trifluoromethyl)pyrimidin-2-yl]phenyl)propyl) thieno[2,3-d] pyrimidin-4-amine], the IC50 is < 4 nM.

With `Cc1cc2c(NCCCc3ccc(-c4cnc(Cl)cn4)cc3)nc(-c3ccoc3)nc2s1` [Example 395, N-(3-[4-(5-chloropyrazin-2-yl)phenyl]propyl)-2-(furan-3-yl)-6-methylthieno[2,3-d]pyrimidin-4-amine], the IC50 came out at 5 nM. Then `Cc1cc2c(NCCCc3ccc(-c4cnc(C#N)cn4)cc3)nc(-c3ccoc3)nc2s1` [Example 396, 5-[4-(3-([2-(furan-3-yl)-6-methylthieno[2,3-d]pyrimidin-4-yl]amino)propyl)phenyl]pyrazine-2-carbonitrile], with < 5 nM. Turning to `Cc1cc2c(NCCCc3ccc(-c4cnc5[nH]ccc5n4)cc3)nc(-c3ccoc3)nc2s1` [Example 397, 2-(furan-3-yl)-6-methyl-N-[3-(4-(5H-pyrrolo[2,3-b]pyrazin-2-yl)phenyl)propyl] thieno[2,3-d] pyrimidin-4-amine], the IC50 was determined as 5000 nM. For the compound `Cc1cc2c(NCCCc3ccc(-c4ccc(S(C)(=O)=O)cn4)cc3)nc(-c3ccoc3)nc2s1` [Example 398, 2-(furan-3-yl)-N-(3-[4-(5-methanesulfonyl-pyridin-2-yl)phenyl]propyl)-6-methylthieno [2,3-d]pyrimidin-4-amine], the half-maximal inhibitory concentration (IC50) was > 460 nM. Then `CSc1cnc(-c2ccc(CCCNc3nc(-c4ccoc4)nc4sc(C)cc34)cc2)cn1` [Example 399, 2-(furan-3-yl)-6-methyl-N-(3-(4-[5-(methylsulfanyl)pyrazin-2-yl]phenyl)propyl) thieno[2,3-d] pyrimidin-4-amine], with > 270 nM. Regarding `Cc1cc2c(NCCCc3ccc(-c4ccc(N(C)C)nn4)cc3)nc(-c3ccoc3)nc2s1` [Example 400, 6-[4-(3-([2-(furan-3-yl)-6-methylthieno [2,3-d]pyrimidin-4-yl]amino)propyl)phenyl]-N,N-dimethylpyridazin-3-amine], the IC50 was > 500 nM. `Cc1cc2c(NCCCc3ccc(-c4cnc(C(=O)N(C)C)cn4)cc3)nc(-c3ccoc3)nc2s1` [Example 401, 5-[4-(3-([2-(furan-3-yl)-6-methylthieno[2,3-d]pyrimidin-4-yl]amino)propyl)phenyl]-N,N-dimethylpyrazine-2-carboxamide] displayed an IC50 of 2200 nM. The result for `Cc1cc2c(NCCCc3ccc(-c4ncc(F)cn4)cc3)nc(-c3ccoc3)nc2s1` [Example 402, N-(3-[4-(5-fluoropyrimidin-2-yl)phenyl]propyl)-2-(furan-3-yl)-6-methylthieno[2,3-d]pyrimidin-4-amine] reads 8 nM; that for `Cc1cc2c(NCCCc3ccc(-c4cnc(CO)cn4)cc3)nc(-c3ccoc3)nc2s1` [Example 403, (5-[4-(3-([2-(furan-3-yl)-6-methylthieno[2,3-d]pyrimidin-4-yl]amino)propyl)phenyl]pyrazin-2-yl)methanol], 70 nM.

On to `CCc1nc(NCCCc2ccc(N3CCOCC3)cc2)c2cc(C)sc2n1` [Example 420, 2-ethyl-6-methyl-N-(3-(4-morpholinophenyl)propyl)thieno[2,3-d]pyrimidin-4-amine], for which the IC50 came out at 160 nM. The compound `CCc1nc(NCCCc2ccc(N3CCCCC3)cc2)c2cc(C)sc2n1` [Example 421, 2-ethyl-6-methyl-N-(3-(4-(piperidin-1-yl)phenyl)propyl) thieno[2,3-d]pyrimidin-4-amine] showed an IC50 of 170 nM.
